The NIST ThermoML archive (doi:10.1016/j.jct.2004.05.001)
Numbers after ± are expanded uncertainties.

conditions: 298.15 K; 101.33 kPa; Liquid

mass density [kg/m3] | SMILES
747 ± 4 | CCCCCCCCCCCC [dodecane]
690.6 ± 1.6 | CCCCCCC [heptane]
771.5 ± 1.4 | CCCCCCCCCCCCCCCC [hexadecane]

Continued, compound first:

SMILES | mass density [kg/m3]
CCCCCCn1cc[n+](C)c1.F[P-](F)(F)(F)(F)F [1-hexyl-3-methylimidazolium hexafluorophosphate] | 1293.5 ± 7
CCCCCCn1cc[n+](C)c1.F[B-](F)(F)F [1-hexyl-3-methylimidazolium tetrafluoroborate] | 1148.1 ± 5
c1ccccc1 [benzene] | 873.2 ± 0.9
